Patent publication US7425557B2, “Inhibitors of glycogen synthase kinase 3” (Novartis Vaccines and Diagnostics, Inc., priority 1998, dated 2008)
pIC50: −log10 of the molar value.

biological target: human GSK3β (Homo sapiens, UniProt P49841); experiment: Screening for GSK3 inhibitory activity using a cell-free assay; type: biochemical; conditions: read-out: IC50 with respect to GSK3
How it was run: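 Compounds in DMSO were tested against human GSK3β over a three-hour kinase reaction. Radiolabeled phosphate transferred to the peptide was captured on streptavidin plates after EDTA/ATP stop and quantified by scintillation counting. Signal was plotted versus compound concentration.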

Sequence of human GSK3β (P49841 whole entry): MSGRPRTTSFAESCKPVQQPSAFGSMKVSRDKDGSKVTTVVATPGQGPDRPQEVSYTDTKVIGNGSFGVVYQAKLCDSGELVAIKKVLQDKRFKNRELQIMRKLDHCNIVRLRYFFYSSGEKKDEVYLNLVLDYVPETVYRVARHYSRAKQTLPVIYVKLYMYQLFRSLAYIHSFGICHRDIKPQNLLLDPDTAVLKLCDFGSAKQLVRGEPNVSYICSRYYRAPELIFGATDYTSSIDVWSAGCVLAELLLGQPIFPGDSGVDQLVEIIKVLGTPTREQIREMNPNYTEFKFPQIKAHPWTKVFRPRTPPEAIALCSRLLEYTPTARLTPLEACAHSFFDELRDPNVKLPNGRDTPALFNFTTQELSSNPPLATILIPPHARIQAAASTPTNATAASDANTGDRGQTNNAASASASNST

pIC50 | Structure (SMILES)
≥ 5.00 | O=C(NCc1cccc(I)c1)c1ccc(-c2ccnc(NCCNc3ccc([N+](=O)[O-])cn3)n2)cc1 [N-[(3-iodophenyl)methyl]{4-[2-({2-[(5-nitro(2-pyridyl))amino]ethyl}amino)pyrimidin-4-yl]phenyl}carboxamide]
≥ 5.00 | CNCc1cccc(-c2cccc(CNc3nccc(-c4ccc(C(N)=O)cc4)n3)c2)c1 [4-(2-{[(3-{3-[(methylamino)methyl]phenyl}-phenyl)methyl]amino}pyrimidin-4-yl)benzamide]
≥ 6.00 | O=c1ccccn1-c1cnc(NCCNc2ccc([N+](=O)[O-])cn2)nc1-c1ccc(Cl)cc1Cl
≥ 5.00 | CCOC(=O)c1cnc(NCCNc2ccc3ccccc3n2)nc1-c1ccc(C#N)cc1 [ethyl 4-(4-cyanophenyl)-2-{[2-(2-quinolylamino)ethyl]amino}pyrimidine-5-carboxylate]
≥ 5.00 | NC(=O)c1ccc(-c2ccnc(NCCCOc3ccc(Cl)cc3)n2)cc1 [4-(2-{[3-(4-chlorophenoxy)propyl]amino}pyrimidin-4-yl)benzamide]
≥ 6.00 | CC(CNc1nccc(-c2ccc(C(N)=O)cc2)n1)c1ccccc1 (stereo not shown) [4-{2-[(2-phenylpropyl)amino]pyrimidin-4-yl}benzamide]
≥ 6.00 | Nc1nc(NCCNc2ncc(N3CCNCC3)c(-c3ccc(Cl)cc3Cl)n2)ccc1[N+](=O)[O-] [{2-[(6-amino-5-nitro(2-pyridyl))amino]-ethyl}[4-(2,4-dichlorophenyl)-5-piperazinylpyrimidin-2-yl]amine]
≥ 6.00 | O=[N+]([O-])c1ccc(NCCNc2ccc(-n3ccnc3)c(-c3ccc(Cl)cc3Cl)n2)nc1 [[6-(2,4-dichlorophenyl)-5-imidazolyl(2-pyridyl)]{2-[(5-nitro(2-pyridyl))amino]ethyl}amine]
≥ 5.00 | O=C(O)c1c(-c2ccccc2)nc(NCCNc2ccc([N+](=O)[O-])cn2)nc1-c1ccc([N+](=O)[O-])cc1 [2-({2-[(5-nitro(2-pyridyl))amino]ethyl}-amino)-6-(4-nitrophenyl)-4-phenylpyrimidine-5-carboxylic acid]
≥ 6.00 | N#Cc1ccc(NCCNc2ncc(-c3ncc[nH]3)c(-c3ccc(Br)cc3Cl)n2)nc1 [6-[(2-{[4-(4-bromo-2-chlorophenyl)-5-imidazol-2-ylpyrimidin-2-yl]amino}ethyl)amino]pyridine-3-carbonitrile]
≥ 6.00 | Cc1cn(-c2ccc(NCCNc3ccc(C#N)cn3)nc2-c2ccc(Cl)cc2Cl)cn1 [6-[(2-{[6-(2,4-dichlorophenyl)-5-(4-methylimidazolyl)-2-pyridyl]-amino}ethyl)amino]pyridine-3-carbonitrile]
≥ 5.00 | N#Cc1cccc(-c2nc(NCCNc3ccc([N+](=O)[O-])cn3)nc(-c3ccc([N+](=O)[O-])cc3)c2C(=O)O)c1 [4-(3-cyanophenyl)-2-({2-[(5-nitro(2-pyridyl))amino]ethyl}amino)-6-(4-nitrophenyl)pyrimidine-5-carboxylic acid]
≥ 5.00 | O=[N+]([O-])c1ccc(NCCNc2nccc(-c3ccc(S(=O)(=O)NCc4cccc(Br)c4)cc3)n2)nc1 [[(3-bromophenyl)methyl]({4-[2-({2-[(5-nitro(2-pyridyl))amino]ethyl}-amino)pyrimidin-4-yl]phenyl}sulfonyl)amine]
≥ 6.00 | O=[N+]([O-])c1ccc(NCCNc2ncc([N+](=O)[O-])c(-c3ccccc3)n2)nc1 [{2-[(5-nitro(2-pyridyl))amino]ethyl}(5-nitro-4-phenylpyrimidin-2-yl)amine]
≥ 6.00 | O=[N+]([O-])c1ccc(NCCNc2ncc(-c3ncc[nH]3)c(-c3ccc(F)cc3Cl)n2)nc1 [[4-(2-chloro-4-fluorophenyl)-5-imidazol-2-ylpyrimidin-2-yl]{2-[(5-nitro(2-pyridyl))amino]ethyl}amine]
≥ 5.00 | O=[N+]([O-])c1ccc(NCCNc2ncc(-c3ccc(F)cc3)cn2)nc1 [[5-(4-fluorophenyl)pyrimidin-2-yl]{2-[(5-nitro(2-pyridyl))amino]ethyl}amine]
≥ 6.00 | Cc1cn(-c2cnc(NCCNc3ccc([N+](=O)[O-])cn3)nc2-c2ccc(Cl)cc2Cl)cn1 [[4-(2,4-dichlorophenyl)-5-(4-methylimidazolyl)pyrimidin-2-yl]{2-[(5-nitro(2-pyridyl))amino]ethyl}amine]
≥ 6.00 | CCOC(=O)c1cnc(NCCNc2ccc([N+](=O)[O-])cn2)nc1-c1ccc(Br)cc1 [ethyl 4-(4-bromophenyl)-2-({2-[(5-nitro(2-pyridyl))amino]ethyl}amino)pyrimidine-5-carboxylate]
≥ 6.00 | CCOC(=O)c1cnc(NCCNc2ccc([N+](=O)[O-])cn2)nc1-c1ccc(CC)cc1 [ethyl 4-(4-ethylphenyl)-2-({2-[(5-nitro(2-pyridyl))amino]ethyl}amino)pyrimidine-5-carboxylate]
≥ 5.00 | Nc1nc(NCCNc2nccc(-c3ccc(C(=O)NCc4cccc(Br)c4)cc3)n2)ccc1[N+](=O)[O-] [{4-[2-({2-[(6-amino-5-nitro(2-pyridyl))amino]ethyl}amino)pyrimidin-4-yl]phenyl}-N-[(3-bromophenyl)methyl]-carboxamide]
≥ 5.00 | Cc1cnc(CNC(=O)c2ccc(-c3ccnc(NCCNc4ccc([N+](=O)[O-])cn4)n3)cc2)cn1 [N-[(5-methylpyrazin-2-yl)methyl]{4-[2-({2-[(5-nitro(2-pyridyl))amino]ethyl}amino)pyrimidin-4-yl]phenyl}carboxamide]
≥ 5.00 | c1ccc(Cc2cnc(NCCNc3ccccn3)nc2-c2ccccc2)cc1 [[4-phenyl-5-benzyl-pyrimidin-2-yl][2-(2-pyridylamino)ethyl]amine]
≥ 5.00 | O=C(NCC(c1ccccc1)c1ccccc1)c1ccc(-c2ccnc(NCCNc3ccc([N+](=O)[O-])cn3)n2)cc1 [N-(2,2-diphenylethyl){4-[2-({2-[(5-nitro(2-pyridyl))amino]ethyl}amino)pyrimidin-4-yl]phenyl}carboxamide]
≥ 6.00 | CCOC(=O)c1cnc(NCCNc2ccc([N+](=O)[O-])cn2)nc1NCc1ccc(C#N)cc1 [ethyl 4-{[(4-cyanophenyl)methyl]amino}-2-({2-[(5-nitro(2-pyridyl))amino]-ethyl}amino)pyrimidine-5-carboxylate]
≥ 5.00 | COc1ccccc1-c1nc(NCCNc2ccc([N+](=O)[O-])cn2)ncc1C(=O)O [4-(2-methoxyphenyl)-2-({2-[(5-nitro(2-pyridyl))amino]ethyl}amino)pyrimidine-5-carboxylic acid]
≥ 6.00 | CN(C)CCc1noc(-c2cnc(NCCNc3ccc([N+](=O)[O-])cn3)nc2-c2ccc(C#N)cc2)n1 [4-[5-{3-[2-(dimethylamino)ethyl](1,2,4-oxadiazol-5-yl)}-2-({2-[(5-nitro(2-pyridyl))amino]-ethyl}amino)pyrimidin-4-yl]benzenecarbonitrile]
≥ 6.00 | Nc1nc(NCCNc2ncc(N3C(=O)c4ccccc4C3=O)c(-c3ccc(Cl)cc3Cl)n2)ccc1[N+](=O)[O-] [2-[2-({2-[(6-amino-5-nitro(2-pyridyl))amino]ethyl}amino)-4-(2,4-dichlorophenyl)pyrimidin-5-yl]isoindoline-1,3-dione]
≥ 6.00 | CCOC(=O)c1c(-c2ccc(C#N)cc2)nc(NCCNc2ccc([N+](=O)[O-])cn2)nc1-c1ccc([N+](=O)[O-])cc1 [ethyl 4-(4-cyanophenyl)-2-({2-[(5-nitro(2-pyridyl))amino]ethyl}amino)-6-(4-nitrophenyl)pyrimidine-5-carboxylate]
